Measurements: PMC5974469, “A New Family of Capsule Polymerases Generates Teichoic Acid-Like Capsule Polymers in Gram-Negative Pathogens” (mBio, 2018)

Target: T1, Cps3D (Actinobacillus pleuropneumoniae, UniProt A0A2S0ETM3)
T1 construct: MBP-Cps3D-His6 (177 kDa), full-length, tags kept, expressed in E. coli M15[pREP4]
Experiment: HPLC-AEC of donor consumption, PAGE and NMR of polymer
Format: biochemical
Conditions: 20 mM Tris pH 8.0, 10 mM MgCl2, 1 mM DTT, 37 °C; no primer; with UDP-Gal

T1 sequence (A0A2S0ETM3 entry or part of it): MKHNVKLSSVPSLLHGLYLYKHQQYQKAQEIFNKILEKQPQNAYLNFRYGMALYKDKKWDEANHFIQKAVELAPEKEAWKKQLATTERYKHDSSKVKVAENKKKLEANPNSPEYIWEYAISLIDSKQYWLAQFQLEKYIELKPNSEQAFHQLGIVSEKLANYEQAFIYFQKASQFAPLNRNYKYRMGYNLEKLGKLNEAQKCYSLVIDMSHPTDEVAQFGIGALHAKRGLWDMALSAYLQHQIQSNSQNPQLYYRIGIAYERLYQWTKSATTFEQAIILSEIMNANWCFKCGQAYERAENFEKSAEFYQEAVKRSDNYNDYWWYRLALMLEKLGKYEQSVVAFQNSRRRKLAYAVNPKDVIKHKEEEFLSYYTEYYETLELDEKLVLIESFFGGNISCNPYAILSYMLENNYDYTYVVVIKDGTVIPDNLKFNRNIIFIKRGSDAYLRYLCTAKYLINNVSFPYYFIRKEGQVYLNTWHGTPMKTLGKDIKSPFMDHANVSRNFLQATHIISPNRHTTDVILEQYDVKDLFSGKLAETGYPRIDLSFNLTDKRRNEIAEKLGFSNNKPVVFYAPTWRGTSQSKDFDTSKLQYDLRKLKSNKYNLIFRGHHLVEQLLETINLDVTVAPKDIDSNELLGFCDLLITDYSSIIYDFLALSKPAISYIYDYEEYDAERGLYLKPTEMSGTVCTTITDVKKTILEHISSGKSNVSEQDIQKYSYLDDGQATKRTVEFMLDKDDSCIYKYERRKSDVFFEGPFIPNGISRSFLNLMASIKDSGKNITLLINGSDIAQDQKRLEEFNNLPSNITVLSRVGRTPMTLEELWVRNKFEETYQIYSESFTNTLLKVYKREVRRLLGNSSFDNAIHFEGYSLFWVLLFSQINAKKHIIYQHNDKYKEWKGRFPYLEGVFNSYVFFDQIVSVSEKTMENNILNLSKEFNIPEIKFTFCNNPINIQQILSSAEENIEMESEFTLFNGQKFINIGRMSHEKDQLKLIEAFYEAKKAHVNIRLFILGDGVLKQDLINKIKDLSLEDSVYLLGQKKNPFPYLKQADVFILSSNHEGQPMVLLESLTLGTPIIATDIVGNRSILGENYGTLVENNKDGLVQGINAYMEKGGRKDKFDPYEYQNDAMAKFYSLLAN

Nc1ccn([C@@H]2O[C@H](COP(=O)(O)OP(=O)(O)OC[C@H](O)CO)[C@@H](O)[C@H]2O)c(=O)n1 (racemic) [CDP-glycerol]
HPLC-AEC of donor consumption, PAGE and NMR of polymer: both enantiomers are substrates for the enzymes as shown by the complete consumption of CDP-glycerol
